Three compounds from ChEMBL document CHEMBL1770076, “(+)-Arisugacin A--computational evidence of a dual binding site covalent inhibitor of acetylcholinesterase” (Bioorg Med Chem Lett, 2011) can be followed below.

The target in one assay is Cholinesterase (Homo sapiens, UniProt P06276).
Another assay has as its target Acetylcholinesterase (Homo sapiens, UniProt P22303).

The IC50 is the concentration that gives 50% inhibition.

Cholinesterase, sequence (P06276 whole entry): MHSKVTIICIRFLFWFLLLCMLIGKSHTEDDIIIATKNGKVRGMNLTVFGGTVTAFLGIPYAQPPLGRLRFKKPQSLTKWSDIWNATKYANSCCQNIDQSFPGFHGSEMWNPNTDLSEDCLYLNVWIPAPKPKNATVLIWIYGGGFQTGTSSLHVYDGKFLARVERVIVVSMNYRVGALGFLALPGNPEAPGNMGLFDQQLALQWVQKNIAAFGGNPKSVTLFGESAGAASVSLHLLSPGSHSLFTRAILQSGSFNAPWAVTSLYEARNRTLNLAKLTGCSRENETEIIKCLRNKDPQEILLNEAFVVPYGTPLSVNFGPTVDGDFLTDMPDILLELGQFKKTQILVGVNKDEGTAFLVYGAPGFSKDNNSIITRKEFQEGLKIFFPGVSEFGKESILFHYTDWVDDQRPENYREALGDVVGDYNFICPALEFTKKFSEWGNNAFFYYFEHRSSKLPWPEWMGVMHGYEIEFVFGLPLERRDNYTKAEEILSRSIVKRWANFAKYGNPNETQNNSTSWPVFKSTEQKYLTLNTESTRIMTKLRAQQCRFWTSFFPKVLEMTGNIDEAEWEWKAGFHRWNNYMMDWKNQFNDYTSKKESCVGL
Acetylcholinesterase, sequence (P22303 whole entry): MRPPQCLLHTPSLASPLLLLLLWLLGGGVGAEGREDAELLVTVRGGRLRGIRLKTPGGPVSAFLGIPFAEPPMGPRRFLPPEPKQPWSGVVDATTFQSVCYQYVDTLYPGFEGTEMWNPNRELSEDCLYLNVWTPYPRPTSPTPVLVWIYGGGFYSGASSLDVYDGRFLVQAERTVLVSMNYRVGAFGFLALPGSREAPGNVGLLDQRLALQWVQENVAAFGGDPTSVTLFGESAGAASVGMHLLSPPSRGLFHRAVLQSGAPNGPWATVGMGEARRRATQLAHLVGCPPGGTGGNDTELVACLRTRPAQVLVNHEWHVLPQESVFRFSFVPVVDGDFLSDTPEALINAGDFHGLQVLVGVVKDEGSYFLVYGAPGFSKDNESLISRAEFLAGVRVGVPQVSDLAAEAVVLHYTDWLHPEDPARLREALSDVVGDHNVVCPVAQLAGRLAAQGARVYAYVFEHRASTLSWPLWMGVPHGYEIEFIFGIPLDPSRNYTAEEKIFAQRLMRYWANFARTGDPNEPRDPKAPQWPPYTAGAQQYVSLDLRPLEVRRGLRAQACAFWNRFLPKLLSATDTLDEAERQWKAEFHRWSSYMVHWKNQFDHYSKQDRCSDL
Description for Acetylcholinesterase: Inhibition of AChE-induced amyloid beta aggregation

Regarding `COc1ccc(-c2cc3c(c(=O)o2)C[C@]2(O)[C@@]4(C)C(=O)C=CC(C)(C)[C@]4(O)CC[C@@]2(C)O3)cc1OC`, on Cholinesterase, the half-inhibitory concentration (IC50) was found to be 18000 nM. Still for that read-out and setting: then `C/C=C1\[C@H]2C=C(C)C[C@]1(N)c1ccc(=O)[nH]c1C2` [HUPERZINE A], with 100 nM. Consider `COc1cc(-c2cc3c(c(=O)o2)C[C@]2(O)[C@@]4(C)C(=O)C=CC(C)(C)[C@]4(O)CC[C@@]2(C)O3)cc(OC)c1OC` [TERRITREM B], for which the IC50 against Acetylcholinesterase turned out to be 6 nM.
